Values quoted from earlier work, collected in patent US8329872B2, “Drug monitoring assay” (Novartis AG, priority 2007, dated 2012).

Target: classical and novel protein kinase C (PKC) isoforms

CN1CCN(c2nc(C3=C(c4c[nH]c5ccccc45)C(=O)NC3=O)c3ccccc3n2)CC1 [AEB071]
ki values: in the nM range
